Data reported in patent US9255094B2, “Pyrido[4,3-B]indoles and methods of use” (Medivation Technologies, Inc., priority 2009, dated 2016).

Assays:
[1] = target: human recombinant dopamine D2L receptor (Homo sapiens, UniProt P14416); assay: Dopamine D2L radioligand binding assay ([3H]Spiperone); settings: compound at 1 μM, 0.16 nM [3H]Spiperone, CHO cells, read-out: Percent Inhibition of ligand binding, Dopamine (1μM)
Procedure: (§1) Compounds of the invention were incubated with 0.16 nM [^3H]Spiperone for 120 min at 25° C. Non-specific binding was estimated in the presence of 10 μM Haloperidol. Receptor proteins were filtered and washed, the filters were then counted to determine [^3H]Spiperone specifically bound. Compounds were screened at 1 μM or lower, using 1% DMSO as vehicle. Biochemical assay results are presented as the percent inhibition of specific binding in Table 3.

[2] = target: T1, human recombinant serotonin (5-Hydroxytryptamine) 5-HT2C receptor (Homo sapiens, UniProt P28335); assay: Serotonin 5-HT2C radioligand binding assay ([3H]Mesulergine); settings: compound at 0.1 μM; 1 nM [3H]Mesulergine; CHO-K1 cells; read-out: Percent Inhibition of ligand binding, Serotonin (0.1 μM) 5-HT2C
T1 construct: expressed in transfected cells; host or cells: Chinese hamster ovary (CHO-K1) cells
T1 sequence (P28335 33-458): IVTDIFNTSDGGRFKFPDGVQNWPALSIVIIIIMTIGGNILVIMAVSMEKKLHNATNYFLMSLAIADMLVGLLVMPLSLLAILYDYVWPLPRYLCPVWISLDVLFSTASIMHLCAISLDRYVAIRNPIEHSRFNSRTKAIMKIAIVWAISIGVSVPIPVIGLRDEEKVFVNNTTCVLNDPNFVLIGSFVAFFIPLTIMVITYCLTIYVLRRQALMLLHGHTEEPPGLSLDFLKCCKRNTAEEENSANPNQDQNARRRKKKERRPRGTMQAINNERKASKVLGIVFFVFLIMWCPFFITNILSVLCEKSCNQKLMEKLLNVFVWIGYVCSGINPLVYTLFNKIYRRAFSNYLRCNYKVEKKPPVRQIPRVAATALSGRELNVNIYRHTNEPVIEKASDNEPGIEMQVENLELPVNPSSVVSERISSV
Procedure: as §1, with “1” for “0.16”, “[^3H]Mesulergine” for “[^3H]Spiperone”, “60” for “120”, “1” for “10”, “Mianserin.” for “Haloperidol.”, “4.” for “3.”

[3] = target: human recombinant serotonin (5-Hydroxytryptamine) 5-HT7 receptor (Homo sapiens, UniProt P34969); assay: Serotonin 5-HT7 radioligand binding assay ([3H]LSD); settings: compound at 0.1 μM; 5.5 nM [3H]LSD; CHO cells; read-out: Percent Inhibition of ligand binding, Serotonin (0.1 μM) 5-HT7
Procedure: Compounds of invention were incubated with 5.5 nM [^3H] Lysergic acid diethylamide (LSD) for 2 h at 25° C. […] Receptor proteins were filtered and washed, the filters were then counted to determine [^3H]LSD specifically bound. Compounds were screened at 1 μM or lower, using 1% DMSO as vehicle. Biochemical assay results are presented as the percent inhibition of specific binding in Table 4.

[4] = target: T2, human recombinant serotonin (5-Hydroxytryptamine) 5-HT2A receptor (Homo sapiens, UniProt P28223); assay: Serotonin 5-HT2A radioligand binding assay ([3H]Ketanserin); settings: 0.5 nM [3H]Ketanserin, CHO-K1 cells; for inhibition at 0.1 µM: compound at 0.1 μM, read-out: Percent Inhibition of ligand binding, Serotonin (0.1 μM) 5-HT2A; for inhibition at 1 µM: read-out: Percent Inhibition of ligand binding, Serotonin (1 μM) 5-HT2A
T2 construct: expressed in transfected cells; host or cells: Chinese hamster ovary (CHO-K1) cells
Procedure: as §1, with “0.5” for “0.16”, “[^3H]Ketanserin” for “[^3H]Spiperone”, “60” for “120”, “1” for “10”, “Mianserin.” for “Haloperidol.”, “4.” for “3.”

[5] = target: T3, human recombinant serotonin (5-Hydroxytryptamine) 5-HT6 receptor (Homo sapiens, UniProt P50406); assay: Serotonin 5-HT6 radioligand binding assay ([3H]LSD); settings: compound at 0.1 μM, HeLa cells, read-out: Percent Inhibition of ligand binding, Serotonin (0.1 μM) 5-HT6
T3 construct: expressed in transfected cells; host or cells: human HeLa cells
Procedure: Compounds of the invention were incubated with 1.5 nM [3H]Lysergic acid diethylamide (LSD) for 120 min at 37° C. […] Receptor proteins were filtered and washed, the filters were then counted to determine [3H]LSD specifically bound. Compounds were screened at 1 μM or lower, using 1% DMSO as vehicle. Biochemical assay results are presented as the percent inhibition of specific binding in Table 4.

[6] = target: human recombinant histamine H1 receptor (Homo sapiens, UniProt P35367); assay: Histamine H1 radioligand binding assay ([3H]Pyrilamine); settings: compound at 1 μM, receptor expressed in CHO cells
Procedure: To evaluate in radioligand binding assays the activity of compounds of the invention, human recombinant histamine H1 receptor expressed in Chinese hamster ovary (CHO) cells (De Backer, M. D. et al., Biochem. Biophys. Res. Comm. 197(3):1601, 1993) in a modified Tris-HCl buffer (50 mM Tris-HCl, pH 7.4, 2 mM MgCl2, 100 mM NaCl, 250 mM Sucrose) was used. Compounds of the invention were incubated with 1.2 nM [^3H]Pyrilamine for 180 min at 25° C. Non-specific binding was estimated in the presence of 1 μM pyrilamine Receptor proteins were filtered and washed, the filters were then counted to determine [^3H]Pyrilamine specifically bound. Compounds were screened at 1 μM or lower, using 1% DMSO as vehicle. Biochemical assay results are presented as the percent inhibition of specific binding in Table 2.

[7] = target: T4, human recombinant adrenergic α2A receptor (Homo sapiens, UniProt P08913); assay: Adrenergic α2A radioligand binding assay ([3H]MK-912); settings: compound at 1 μM, 1 nM [3H]MK-912, insect Sf9 cells
T4 construct: expressed in transfected cells; host or cells: insect Sf9 cells
T4 sequence (P08913 1-465): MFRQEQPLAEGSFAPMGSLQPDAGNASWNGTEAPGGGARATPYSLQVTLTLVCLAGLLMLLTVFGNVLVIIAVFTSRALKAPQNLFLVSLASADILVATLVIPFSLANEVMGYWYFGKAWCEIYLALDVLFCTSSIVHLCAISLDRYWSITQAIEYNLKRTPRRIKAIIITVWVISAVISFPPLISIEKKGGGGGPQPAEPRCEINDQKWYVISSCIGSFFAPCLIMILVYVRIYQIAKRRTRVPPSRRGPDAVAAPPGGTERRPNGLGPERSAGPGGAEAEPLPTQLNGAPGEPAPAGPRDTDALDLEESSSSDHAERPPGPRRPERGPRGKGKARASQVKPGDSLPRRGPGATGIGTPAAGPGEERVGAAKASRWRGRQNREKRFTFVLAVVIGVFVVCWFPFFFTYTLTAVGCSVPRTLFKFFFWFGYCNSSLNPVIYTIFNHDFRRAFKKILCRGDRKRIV
Procedure: To evaluate in radioligand binding assays the activity of compounds of the invention, human recombinant adrenergic α2A receptor expressed in insect Sf9 cells (Uhlen S et al. J. Pharmacol. Exp. Ther. 271:1558, 1994) in a modified Tris-HCl buffer (50 mM Tris-HCl, pH 7.4, 12.5 mM MgCl2, 2 mM EDTA) was used. Compounds of invention were incubated with 1 nM [^3H]MK-912 for 60 min at 25° C. MK912 is (2S-trans)-1,3,4,5′,6,6′,7,12b-octahydro-1′,3′-dimethyl-spiro[2H-benzofuro[2,3-a]quinolizine-2,4′(1′H)-pyrimidin]-2′(3′H)-one hydrochloride Non-specific binding was estimated in the presence of 10 μM WB-4101 (2-(2,6-dimethoxyphenoxyethyl)aminomethyl-1,4-benzodioxane hydrochloride). Receptor proteins were filtered and washed, the filters were then counted to determine [^3H]MK-912 specifically bound.

Sequence of human recombinant serotonin (5-Hydroxytryptamine) 5-HT7 receptor (P34969 whole entry): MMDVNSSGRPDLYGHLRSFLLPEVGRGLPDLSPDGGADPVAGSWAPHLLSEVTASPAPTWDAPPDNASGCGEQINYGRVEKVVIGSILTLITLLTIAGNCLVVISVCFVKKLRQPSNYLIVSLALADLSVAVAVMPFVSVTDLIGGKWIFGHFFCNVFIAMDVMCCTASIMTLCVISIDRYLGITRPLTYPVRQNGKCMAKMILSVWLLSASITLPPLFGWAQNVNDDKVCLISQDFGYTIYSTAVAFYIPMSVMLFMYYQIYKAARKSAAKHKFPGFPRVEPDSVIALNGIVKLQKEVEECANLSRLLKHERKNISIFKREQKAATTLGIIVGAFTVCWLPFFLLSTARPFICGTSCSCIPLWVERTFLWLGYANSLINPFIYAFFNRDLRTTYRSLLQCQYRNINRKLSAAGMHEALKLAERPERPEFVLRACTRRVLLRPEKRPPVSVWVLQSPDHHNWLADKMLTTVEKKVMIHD
Sequence of human recombinant dopamine D2L receptor (P14416 whole entry): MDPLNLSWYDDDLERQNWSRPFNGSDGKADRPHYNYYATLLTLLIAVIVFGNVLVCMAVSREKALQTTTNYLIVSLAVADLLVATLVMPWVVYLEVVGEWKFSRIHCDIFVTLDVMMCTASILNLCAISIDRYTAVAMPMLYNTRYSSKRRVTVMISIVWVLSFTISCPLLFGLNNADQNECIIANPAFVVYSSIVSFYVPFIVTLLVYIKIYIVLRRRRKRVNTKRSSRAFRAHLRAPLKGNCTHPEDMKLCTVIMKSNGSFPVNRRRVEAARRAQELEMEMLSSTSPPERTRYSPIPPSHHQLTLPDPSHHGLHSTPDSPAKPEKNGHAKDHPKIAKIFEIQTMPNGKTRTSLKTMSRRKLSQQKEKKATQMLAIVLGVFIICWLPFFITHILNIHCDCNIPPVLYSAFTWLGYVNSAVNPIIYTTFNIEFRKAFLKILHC
T3 sequence (P50406 whole entry): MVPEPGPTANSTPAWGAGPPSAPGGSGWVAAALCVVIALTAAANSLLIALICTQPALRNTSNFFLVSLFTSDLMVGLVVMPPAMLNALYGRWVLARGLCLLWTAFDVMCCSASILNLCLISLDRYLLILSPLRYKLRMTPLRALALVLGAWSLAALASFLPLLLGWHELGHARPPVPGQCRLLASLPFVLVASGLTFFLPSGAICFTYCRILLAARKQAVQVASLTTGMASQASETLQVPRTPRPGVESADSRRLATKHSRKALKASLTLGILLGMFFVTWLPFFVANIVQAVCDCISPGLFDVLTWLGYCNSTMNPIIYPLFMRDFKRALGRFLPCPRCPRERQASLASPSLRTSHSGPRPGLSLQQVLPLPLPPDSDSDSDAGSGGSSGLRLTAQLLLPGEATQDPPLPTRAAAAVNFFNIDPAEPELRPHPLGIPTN
Sequence of human recombinant histamine H1 receptor (P35367 whole entry): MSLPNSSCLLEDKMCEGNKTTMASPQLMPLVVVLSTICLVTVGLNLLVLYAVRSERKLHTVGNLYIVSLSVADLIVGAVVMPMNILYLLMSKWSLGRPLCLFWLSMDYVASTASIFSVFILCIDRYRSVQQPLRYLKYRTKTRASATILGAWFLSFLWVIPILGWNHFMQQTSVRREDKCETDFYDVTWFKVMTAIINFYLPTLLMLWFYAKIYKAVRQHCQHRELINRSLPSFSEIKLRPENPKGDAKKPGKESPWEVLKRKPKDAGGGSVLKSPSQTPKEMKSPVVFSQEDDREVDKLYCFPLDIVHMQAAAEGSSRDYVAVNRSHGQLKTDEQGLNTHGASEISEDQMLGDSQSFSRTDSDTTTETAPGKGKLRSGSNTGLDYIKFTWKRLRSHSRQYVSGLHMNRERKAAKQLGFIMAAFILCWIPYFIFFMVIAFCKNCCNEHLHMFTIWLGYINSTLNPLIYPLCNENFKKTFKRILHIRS
T2 sequence (P28223 whole entry): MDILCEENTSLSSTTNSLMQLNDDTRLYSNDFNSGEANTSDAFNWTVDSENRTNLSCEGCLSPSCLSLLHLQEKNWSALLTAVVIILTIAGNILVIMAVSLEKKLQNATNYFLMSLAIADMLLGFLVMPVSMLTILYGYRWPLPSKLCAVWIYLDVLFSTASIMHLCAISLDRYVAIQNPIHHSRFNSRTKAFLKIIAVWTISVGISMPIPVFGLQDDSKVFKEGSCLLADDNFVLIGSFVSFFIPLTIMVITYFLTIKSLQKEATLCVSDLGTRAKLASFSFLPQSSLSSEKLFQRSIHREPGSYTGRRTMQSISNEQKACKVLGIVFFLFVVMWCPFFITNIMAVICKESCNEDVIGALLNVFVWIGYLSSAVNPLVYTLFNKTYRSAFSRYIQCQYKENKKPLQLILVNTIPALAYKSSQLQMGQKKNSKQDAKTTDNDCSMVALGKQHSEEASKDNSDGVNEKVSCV

## Cc1ccc2c(c1)c1c(n2CC2(c3ccncc3)CC2)CCN(C)C1 [Compound 1-50, 2,8-dimethyl-5-((1-(pyridin-4-yl)cyclopropyl)methyl)-2,3,4,5-tetrahydro-1H-pyrido[4,3-b]indole]
[1]
  inhibition at 1 µM: 47%
[2]
  inhibition at 0.1 µM: -1%
[3]
  inhibition at 0.1 µM: 95%
[4]
  inhibition at 0.1 µM: 77%
[5]
  inhibition at 0.1 µM: 30%
[6]
  inhibition at 1 µM: 97%

## Cc1ccc2c(c1)c1c(n2CC(C)c2ccc(C)nc2)CC(C)N(C)C1 (centres unmarked) [Compound 1-47, 2,3,8-trimethyl-5-(2-(6-methylpyridin-3-yl)propyl)-2,3,4,5-tetrahydro-1H-pyrido[4,3-b]indole]
[1]
  inhibition at 1 µM: 12%
[2]
  inhibition at 0.1 µM: 70%
[3]
  inhibition at 0.1 µM: 85%
[4]
  inhibition at 0.1 µM: 46%
[5]
  inhibition at 0.1 µM: 19%
[6]
  inhibition at 1 µM: 91%

## CCCCC(O)(Cn1c2c(c3cc(Cl)ccc31)CN(C)CC2)c1ccc(F)cc1 (centres unmarked) [Compound 1-64, 1-(8-chloro-2-methyl-3,4-dihydro-1H-pyrido[4,3-b]indol-5(2H)-yl)-2-(4-fluorophenyl)hexan-2-ol]
[4]; compound at 1 μM
  Percent Inhibition of ligand binding, Serotonin (1 μM) 5-HT2A: 98%
[7]
  Percent Inhibition of ligand binding, Adrenergic (1 μM) a2A: 88%

## Cc1ccc2c(c1)c1c(n2CCc2ccc(C)nc2)CC(C)N(C)C1 (centres unmarked) [Compound 1-44, 2,3,8-trimethyl-5-(2-(6-methylpyridin-3-yl)ethyl)-2,3,4,5-tetrahydro-1H-pyrido[4,3-b]indole]
[1]
  inhibition at 1 µM: 8%
[2]
  inhibition at 0.1 µM: 45%
[3]
  inhibition at 0.1 µM: 74%
[4]
  inhibition at 0.1 µM: 16%
[5]
  inhibition at 0.1 µM: 46%
[6]
  inhibition at 1 µM: 100%

## Cc1ccc(CCn2c3c(c4cc(Cl)ccc42)CN(C)C(C)C3)cn1 (centres unmarked) [Compound 1-48, 8-chloro-2,3-dimethyl-5-(2-(6-methylpyridin-3-yl)ethyl)-2,3,4,5-tetrahydro-1H-pyrido[4,3-b]indole]
[1]
  inhibition at 1 µM: 12%
[2]
  inhibition at 0.1 µM: 40%
[3]
  inhibition at 0.1 µM: 86%
[4]
  inhibition at 0.1 µM: 30%
[5]
  inhibition at 0.1 µM: 50%
[6]
  inhibition at 1 µM: 101%

## Cc1ccc2c(c1)c1c(n2CCc2ccc(C(F)(F)F)nc2)C(C)CN(C)C1 (centres unmarked) [Compound 1-51, 2,4,8-trimethyl-5-(2-(6-(trifluoromethyl)pyridin-3-yl)ethyl)-2,3,4,5-tetrahydro-1H-pyrido[4,3-b]indole]
[1]
  inhibition at 1 µM: 14%
[2]
  inhibition at 0.1 µM: 92%
[3]
  inhibition at 0.1 µM: 15%
[4]
  inhibition at 0.1 µM: 77%
[5]
  inhibition at 0.1 µM: 4%
[6]
  inhibition at 1 µM: 65%

## Cc1ccc2c(c1)c1c(n2CCc2ccc(C(F)(F)F)nc2)CC(C)N(C)C1 (centres unmarked) [Compound 1-45, 2,3,8-trimethyl-5-(2-(6-(trifluoromethyl)pyridin-3-yl)ethyl)-2,3,4,5-tetrahydro-1H-pyrido[4,3-b]indole]
[1]
  inhibition at 1 µM: 0%
[2]
  inhibition at 0.1 µM: 50%
[3]
  inhibition at 0.1 µM: 78%
[4]
  inhibition at 0.1 µM: 51%
[5]
  inhibition at 0.1 µM: 18%
[6]
  inhibition at 1 µM: 96%

## Cc1ccc2c(c1)c1c(n2CC(O)(c2ccc(F)cc2)C2CCCCC2)CCN(C)C1 (centres unmarked) [Compound 1-1, 1-cyclohexyl-2-(2,8-dimethyl-3,4-dihydro-1H-pyrido[4,3-b]indol-5(2H)-yl)-1-(4-fluorophenyl)ethanol]
[1]
  inhibition at 1 µM: 13%
[4]
  inhibition at 0.1 µM: 60%
[4]; compound at 1 μM
  inhibition at 1 µM: 97%
[6]
  inhibition at 1 µM: 22%

## CCCCC(O)(Cn1c2c(c3cc(Cl)ccc31)CN(C)CC2)c1ccc(F)cc1 (centres unmarked) [Compound 1-7, 1-(8-chloro-2-methyl-3,4-dihydro-1H-pyrido[4,3-b]indol-5(2H)-yl)-2-(4-fluorophenyl)hexan-2-ol]
[4]; compound at 1 μM
  inhibition at 1 µM: 98%
[7]; read-out: Percent Inhibition of ligand binding, Adrenergic (1 μM) a2A
  inhibition at 1 µM: 88%
